Tests used:
[1] = biological target: T1, calpain-I isolated from human erythrocytes (Homo sapiens, UniProt P07384); assay: Calpain I enzyme inhibition in vitro (kinetic fluorescence assay); format: biochemical; details: apparent Ki from IC50 (Cheng-Prussoff); 20 nM calpain-I, 100 μM Suc-Leu-Tyr-AMC, pH 7.3, room temperature
T1 construct: calpain-I—isolated from human erythrocytes; purchased Calbiochem 208713; host or cells: human erythrocytes (tissue-derived)
T1 sequence (P07384 1-714): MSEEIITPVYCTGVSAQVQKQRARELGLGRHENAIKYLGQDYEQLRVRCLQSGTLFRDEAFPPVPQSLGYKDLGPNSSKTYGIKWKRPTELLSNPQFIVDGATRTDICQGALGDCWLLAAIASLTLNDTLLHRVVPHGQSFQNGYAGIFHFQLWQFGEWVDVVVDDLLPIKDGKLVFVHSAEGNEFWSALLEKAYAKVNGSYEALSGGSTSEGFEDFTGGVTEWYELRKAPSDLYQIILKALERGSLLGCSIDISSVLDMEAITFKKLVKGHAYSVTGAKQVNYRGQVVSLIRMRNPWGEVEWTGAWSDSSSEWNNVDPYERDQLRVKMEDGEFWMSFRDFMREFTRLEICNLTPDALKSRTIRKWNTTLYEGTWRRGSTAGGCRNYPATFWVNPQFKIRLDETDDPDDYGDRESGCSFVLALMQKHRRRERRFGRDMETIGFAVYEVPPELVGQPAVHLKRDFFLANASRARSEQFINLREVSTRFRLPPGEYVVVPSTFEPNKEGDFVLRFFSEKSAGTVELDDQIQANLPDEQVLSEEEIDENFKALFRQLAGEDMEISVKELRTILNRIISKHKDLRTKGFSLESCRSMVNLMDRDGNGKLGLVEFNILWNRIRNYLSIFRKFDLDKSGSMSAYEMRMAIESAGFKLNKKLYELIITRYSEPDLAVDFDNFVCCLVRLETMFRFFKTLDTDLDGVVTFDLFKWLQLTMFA
T1 sequence (P04632 1-268 partner): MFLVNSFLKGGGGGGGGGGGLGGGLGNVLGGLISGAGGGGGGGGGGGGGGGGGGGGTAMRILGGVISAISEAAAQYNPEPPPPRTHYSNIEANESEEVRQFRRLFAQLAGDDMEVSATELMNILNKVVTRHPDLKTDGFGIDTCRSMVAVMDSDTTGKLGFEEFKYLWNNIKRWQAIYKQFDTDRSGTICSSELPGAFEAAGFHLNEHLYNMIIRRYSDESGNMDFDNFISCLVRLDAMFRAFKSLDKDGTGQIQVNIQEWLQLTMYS
Method in brief: (§1)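 Kinetic AMC fluorescence (ex 390/em 460 nm), room temperature. Calpain-I 20 nM, 100 μM Suc-Leu-Tyr-AMC, imidazole/CaCl2 pH 7.3; cathepsins B 0.25 nM/100 μM Z-Phe-Arg-AMC, K 3 nM/10 μM Z-Gly-Pro-Arg-AMC, S 0.5 nM/20 μM Z-Val-Val-Arg-AMC, each MES/EDTA/cysteine pH 6.0. Ki from IC50 via Cheng-Prusoff, averaging 2–4 curves.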

[2] = biological target: T2, cathepsin B isolated from human liver (Homo sapiens, UniProt P07858); assay: Cathepsin B enzyme inhibition in vitro (kinetic fluorescence assay); format: biochemical; details: Ki(cathepsin B)/Ki(calpain) ratio
T2 construct: cathepsin B—isolated from human liver; purchased Calbiochem 219362; host or cells: human liver (tissue-derived)
Method in brief: as §1

[3] = biological target: T3, cathepsin K activated from recombinant human procathepsin K (Homo sapiens, UniProt P43235); assay: Cathepsin K enzyme inhibition in vitro (kinetic fluorescence assay); format: biochemical; details: Ki(cathepsin K)/Ki(calpain) ratio
T3 construct: purchased Calbiochem 342001; host or cells: E. coli
T3 sequence (P43235 115-329): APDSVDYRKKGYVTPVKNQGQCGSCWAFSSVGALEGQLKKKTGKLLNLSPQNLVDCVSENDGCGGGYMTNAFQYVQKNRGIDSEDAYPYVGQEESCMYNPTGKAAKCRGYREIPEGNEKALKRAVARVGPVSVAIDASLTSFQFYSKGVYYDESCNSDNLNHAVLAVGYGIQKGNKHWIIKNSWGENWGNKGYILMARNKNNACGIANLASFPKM
Method in brief: as §1

[4] = biological target: T4, cathepsin L isolated from human liver (Homo sapiens, UniProt P07711); assay: Cathepsin L enzyme inhibition in vitro (kinetic fluorescence assay); format: biochemical; details: Ki(cathepsin L)/Ki(calpain) ratio
T4 construct: cathepsin L—isolated from human liver; purchased Calbiochem 219402; host or cells: human liver (tissue-derived)
Method in brief: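 Inhibition of cathepsin L isolated from human liver was measured by kinetic fluorescence (excitation 390 nm, emission 460 nm) using 1 nM enzyme and 2 μM Z-Phe-Arg-AMC substrate (Km 2 μM) in 50 mM MES, 2 mM EDTA, 0.05% Brij 35, 2.5 mM L-cysteine, pH 6.0, at room temperature. Apparent Ki values came from IC50 values via the Cheng-Prussoff relation, averaged over 2 to 4 dose-effect plots.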

[5] = biological target: T5, recombinant human cathepsin S (Homo sapiens, UniProt P25774); assay: Cathepsin S enzyme inhibition in vitro (kinetic fluorescence assay); format: biochemical; details: Ki(cathepsin S)/Ki(calpain) ratio
T5 construct: purchased Calbiochem 219343; host or cells: E. coli
Method in brief: as §1

[6] = Assay for determining cytosolic clearance, human liver cytosol; format: in vitro ADME; details: 0.5 μM compound, 1 mg/ml human liver cytosol, 37° C., pH 7.5
Procedure: (§2) For comparison purposes data measured with human liver cytosol were contrasted with those obtained with cynomolgus monkey liver cytosol.
(§3) 0.5 μM of a compound to be tested was incubated with 1 mg/ml of human liver cytosol as well as monkey liver cytosol at 37° C. in 0.5 M of phosphate buffer at pH 7.5 while shaking (commercial sources: female cynomolgus liver cytosol from Tebu bio, human liver cytosol from BDgentest).
(§4) In each case aliquots of 65 μl were taken after 0, 5, 10 and 15 min and transferred into wells of a wellplate which were immediately filled with 130 μl of ethanol to stop the reaction. The samples were kept frozen until analysis on a LC/MS/MS system (Applied Biosystems SCIEX 4000).
(§5) Read out parameters were the loss of parent compounds, from which the half life periods (T1/2) were calculated from.
(§6) To assess the stability of the compounds tested the clearance ranges were adjusted to the hepatic plasma flow of the different species according to the following scheme:
(§7) stable=from 0 to about ⅓ of the hepatic plasma flow;
(§8) moderately stable=from about ⅓ to about ⅔ of the hepatic plasma flow;
(§9) instable=more than ⅔ of the hepatic plasma flow.
(§10) Based on this adjustment the following qualifiers were assigned to evaluate the cytosolic stabilities of the compounds tested: […]

[7] = Assay for determining cytosolic clearance, cynomolgus monkey liver cytosol; format: in vitro ADME; details: 0.5 μM compound, 1 mg/ml cynomolgus monkey liver cytosol, 37° C., pH 7.5
Procedure: as §2, §3, §4, §5, §6, §7, §8, §9, §10

T5 sequence (P25774 115-331): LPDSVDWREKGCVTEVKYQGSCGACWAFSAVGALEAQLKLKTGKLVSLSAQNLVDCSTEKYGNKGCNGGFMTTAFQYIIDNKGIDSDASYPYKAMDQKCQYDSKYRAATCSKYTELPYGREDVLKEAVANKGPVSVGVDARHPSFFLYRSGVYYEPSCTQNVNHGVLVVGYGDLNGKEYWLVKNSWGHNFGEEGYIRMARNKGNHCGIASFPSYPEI
T4 sequence (P07711 114-333): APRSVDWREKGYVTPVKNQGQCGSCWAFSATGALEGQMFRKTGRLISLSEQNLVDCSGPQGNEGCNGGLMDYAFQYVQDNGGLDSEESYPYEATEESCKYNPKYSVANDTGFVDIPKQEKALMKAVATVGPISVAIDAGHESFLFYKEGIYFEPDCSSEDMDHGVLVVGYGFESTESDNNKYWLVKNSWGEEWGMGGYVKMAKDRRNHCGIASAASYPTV

CNC(=O)C(=O)C(Cc1ccccc1)NC(=O)[C@H]1CCC(=O)N1Cc1ccccc1 (mixture of isomers) [Example 25, (2R)-1-Benzyl-N-(4-(methylamino)-3,4-dioxo-1-phenylbutan-2-yl)-5-oxopyrrolidine-2-carboxamide]
Ki [1]: 100 to 600 nM | Sel cat. B [2]: +++ (Ki(cathepsin B)/Ki(calpain) ratio of >30) | Sel cat. K [3]: +++ (Ki(cathepsin K)/Ki(calpain) ratio of >30) | Sel cat. L [4]: +++ (Ki(cathepsin L)/Ki(calpain) ratio of >30) | Sel cat. S [5]: ++ (30<Ki(cathepsin B)/Ki(calpain)≦100) | human cytCL [6]: ++ (0-14 μl/min/mg) | cyno cytCL [7]: ++ (0-18 μl/min/mg)

COc1cccc(C(F)(F)F)c1CN1C(=O)CC[C@@H]1C(=O)NC(Cc1ccccc1)C(=O)C(N)=O (stereo partly drawn) [Example 50, (2R)—N-(4-Amino-3,4-dioxo-1-phenylbutan-2-yl)-5-oxo-1-[2-methoxy-6-(trifluoromethyl)benzyl]pyrrolidine-2-carboxamide]
Ki [1]: < 50 nM | Sel cat. B [2]: +++ (Ki(cathepsin B)/Ki(calpain) ratio of >30) | Sel cat. K [3]: +++ (Ki(cathepsin K)/Ki(calpain) ratio of >30) | Sel cat. L [4]: +++ (Ki(cathepsin L)/Ki(calpain) ratio of >30) | Sel cat. S [5]: +++ (Ki(cathepsin S)/Ki(calpain) ratio of >100) | human cytCL [6]: + (14-70 μl/min/mg) | cyno cytCL [7]: + (18-90 μl/min/mg)

CCNC(=O)C(=O)C(Cc1ccccc1)NC(=O)[C@H]1CCC(=O)N1Cc1ccccc1C(F)(F)F (mixture of isomers) [Example 37, (2R)—N-(4-(Ethylamino)-3,4-dioxo-1-phenylbutan-2-yl)-5-oxo-1-(2-(trifluoromethyl)-benzyl)pyrrolidine-2-carboxamide]
Ki [1]: 100 to 600 nM | Sel cat. B [2]: ++ (10<Ki(cathepsin B)/Ki(calpain)≦30) | Sel cat. K [3]: ++ (10<Ki(cathepsin B)/Ki(calpain)≦30) | Sel cat. L [4]: +++ (Ki(cathepsin L)/Ki(calpain) ratio of >30) | Sel cat. S [5]: + (10<Ki(cathepsin S)/Ki(calpain)≦30) | human cytCL [6]: ++ (0-14 μl/min/mg) | cyno cytCL [7]: ++ (0-18 μl/min/mg)

COc1cccc(C(F)(F)F)c1CN1C(=O)CC[C@@H]1C(=O)NC(Cc1ccccc1)C(=O)C(=O)NCc1ccccn1 (mixture of isomers) [Example 43, (2R)—N-(3,4-Dioxo-1-phenyl-4-(pyridin-2-ylmethylamino)butan-2-yl)-1-(2-methoxy-6-(trifluoromethyl)benzyl)-5-oxopyrrolidine-2-carboxamide]
Ki [1]: 100 to 600 nM | Sel cat. B [2]: +++ (Ki(cathepsin B)/Ki(calpain) ratio of >30) | Sel cat. K [3]: +++ (Ki(cathepsin K)/Ki(calpain) ratio of >30) | Sel cat. L [4]: +++ (Ki(cathepsin L)/Ki(calpain) ratio of >30) | Sel cat. S [5]: ++ (30<Ki(cathepsin B)/Ki(calpain)≦100) | human cytCL [6]: ++ (0-14 μl/min/mg) | cyno cytCL [7]: ++ (0-18 μl/min/mg)

CC(C)CNC(=O)C(=O)C(Cc1ccccc1)NC(=O)[C@H]1CCC(=O)N1Cc1ccccc1 (mixture of isomers) [Example 28, (2R)-1-Benzyl-N-(4-(isobutylamino)-3,4-dioxo-1-phenylbutan-2-yl)-5-oxopyrrolidine-2-carboxamide]
Ki [1]: 100 to 600 nM | Sel cat. B [2]: +++ (Ki(cathepsin B)/Ki(calpain) ratio of >30) | Sel cat. K [3]: +++ (Ki(cathepsin K)/Ki(calpain) ratio of >30) | Sel cat. L [4]: +++ (Ki(cathepsin L)/Ki(calpain) ratio of >30) | Sel cat. S [5]: ++ (30<Ki(cathepsin B)/Ki(calpain)≦100) | human cytCL [6]: ++ (0-14 μl/min/mg) | cyno cytCL [7]: ++ (0-18 μl/min/mg)

O=C(NC1CC1)C(=O)C(Cc1ccccc1)NC(=O)[C@H]1CCC(=O)N1Cc1ccccc1C(F)(F)F (mixture of isomers) [Example 36, (2R)—N-(4-(Cyclopropylamino)-3,4-dioxo-1-phenylbutan-2-yl)-5-oxo-1-(2-(trifluoromethyl)benzyl)pyrrolidine-2-carboxamide]
Ki [1]: 50 to 100 nM | Sel cat. B [2]: ++ (10<Ki(cathepsin B)/Ki(calpain)≦30) | Sel cat. K [3]: +++ (Ki(cathepsin K)/Ki(calpain) ratio of >30) | Sel cat. L [4]: +++ (Ki(cathepsin L)/Ki(calpain) ratio of >30) | Sel cat. S [5]: +++ (Ki(cathepsin S)/Ki(calpain) ratio of >100) | human cytCL [6]: ++ (0-14 μl/min/mg) | cyno cytCL [7]: ++ (0-18 μl/min/mg)

O=C(NC1CC1)C(=O)C(Cc1ccccc1)NC(=O)[C@H]1CCC(=O)N1Cc1ccccc1 (mixture of isomers) [Example 27, (2R)-1-Benzyl-N-(4-(cyclopropylamino)-3,4-dioxo-1-phenylbutan-2-yl)-5-oxopyrrolidine-2-carboxamide]
Ki [1]: 100 to 600 nM | Sel cat. B [2]: +++ (Ki(cathepsin B)/Ki(calpain) ratio of >30) | Sel cat. K [3]: +++ (Ki(cathepsin K)/Ki(calpain) ratio of >30) | Sel cat. L [4]: +++ (Ki(cathepsin L)/Ki(calpain) ratio of >30) | Sel cat. S [5]: ++ (30<Ki(cathepsin B)/Ki(calpain)≦100) | human cytCL [6]: ++ (0-14 μl/min/mg) | cyno cytCL [7]: ++ (0-18 μl/min/mg)

O=C(NCc1ccc(C(F)(F)F)cc1)C(=O)C(Cc1ccccc1)NC(=O)[C@H]1CCC(=O)N1Cc1ccccc1 (mixture of isomers) [Example 68, (2R)-1-Benzyl-N-(3,4-dioxo-1-phenyl-4-(4-(trifluoromethyl)benzylamino)butan-2-yl)-5-oxopyrrolidine-2-carboxamide]
Ki [1]: 100 to 600 nM | Sel cat. B [2]: +++ (Ki(cathepsin B)/Ki(calpain) ratio of >30) | Sel cat. K [3]: +++ (Ki(cathepsin K)/Ki(calpain) ratio of >30) | Sel cat. L [4]: ++ (10<Ki(cathepsin B)/Ki(calpain)≦30) | Sel cat. S [5]: +++ (Ki(cathepsin S)/Ki(calpain) ratio of >100) | cyno cytCL [7]: ++ (0-18 μl/min/mg)

CCNC(=O)C(=O)C(Cc1ccccc1)NC(=O)[C@H]1CCC(=O)N1Cc1c(OC)cccc1C(F)(F)F (mixture of isomers) [Example 42, (2R)—N-(4-(Ethylamino)-3,4-dioxo-1-phenylbutan-2-yl)-1-(2-methoxy-6-(trifluoromethyl)benzyl)-5-oxopyrrolidine-2-carboxamide]
Sel cat. B [2]: ++ (10<Ki(cathepsin B)/Ki(calpain)≦30) | Sel cat. K [3]: ++ (10<Ki(cathepsin B)/Ki(calpain)≦30) | Sel cat. L [4]: ++ (10<Ki(cathepsin B)/Ki(calpain)≦30) | human cytCL [6]: ++ (0-14 μl/min/mg) | cyno cytCL [7]: ++ (0-18 μl/min/mg)

Reference: patent publication US9018206B2, “Carboxamide compounds and their use as calpain inhibitors” (AbbVie Deutschland GmbH & Co. KG, priority 2009, dated 2015)
